Data reported in paper PMC6038183 (BMC Genomics, 2018).

Biological target: OppA (main ectoATPase of M. hominis PG21) (Metamycoplasma hominis, UniProt D1J7T8)
Conditions: intact cells of parental strain PG21 (whole-cell ectoATPase activity, other ATPases not excluded); pH 7.5, 37 °C, 4 h, 0-3 mM ATP

Chain of OppA (main ectoATPase of M. hominis PG21) (D1J7T8 entry or part of it): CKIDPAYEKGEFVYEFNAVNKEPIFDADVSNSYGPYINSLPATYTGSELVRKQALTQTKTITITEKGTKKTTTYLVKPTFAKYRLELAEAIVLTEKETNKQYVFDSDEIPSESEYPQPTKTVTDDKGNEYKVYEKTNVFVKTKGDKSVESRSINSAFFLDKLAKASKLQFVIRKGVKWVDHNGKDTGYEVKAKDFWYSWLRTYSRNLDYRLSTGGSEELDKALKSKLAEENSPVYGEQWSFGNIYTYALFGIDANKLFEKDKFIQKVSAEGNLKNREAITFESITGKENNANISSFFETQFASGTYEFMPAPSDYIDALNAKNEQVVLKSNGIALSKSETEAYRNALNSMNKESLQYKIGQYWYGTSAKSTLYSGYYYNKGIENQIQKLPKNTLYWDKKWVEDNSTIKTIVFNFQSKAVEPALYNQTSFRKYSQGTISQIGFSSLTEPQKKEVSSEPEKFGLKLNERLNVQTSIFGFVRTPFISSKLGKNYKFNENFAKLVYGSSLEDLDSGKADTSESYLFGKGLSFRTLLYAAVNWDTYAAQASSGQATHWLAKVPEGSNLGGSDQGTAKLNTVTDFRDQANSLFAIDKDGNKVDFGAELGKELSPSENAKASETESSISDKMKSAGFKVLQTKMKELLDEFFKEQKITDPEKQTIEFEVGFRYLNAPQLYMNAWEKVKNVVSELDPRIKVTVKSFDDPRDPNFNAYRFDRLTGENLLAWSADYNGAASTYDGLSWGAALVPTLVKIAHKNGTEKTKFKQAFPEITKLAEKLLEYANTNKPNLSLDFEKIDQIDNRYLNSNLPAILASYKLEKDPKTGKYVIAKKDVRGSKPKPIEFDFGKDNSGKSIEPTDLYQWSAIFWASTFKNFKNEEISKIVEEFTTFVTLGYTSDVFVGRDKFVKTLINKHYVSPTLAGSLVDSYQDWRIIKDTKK

## Nc1ncnc2c1ncn2[C@@H]1O[C@H](COP(=O)(O)OP(=O)(O)OP(=O)(O)O)[C@@H](O)[C@H]1O [ATP]
  Km: the parental PG21 strain were tested for ATPase activity
